What was measured:
[1] = tested on: healthy male subjects; assay: Phase I clinical trial, safety of escalating doses; assay type: in vivo, human; settings: 12 healthy male subjects
Protocol: Based on animal toxicological studies and on the accumulated data on human patients, S-ethylisothiouronium diethylphosphate was approved for a Phase I clinical trial. In this study, the pharmacokinetic profile as well as safety of escalating doses (0.6-2.4 mg/kg) of S-ethylisothiouronium diethylphosphate were assessed in 12 healthy male subjects.

[2] = tested on: rats; assay: Animal toxicological studies (single or repeated dose, LD50)

S-ethylisothiouronium diethylphosphate
Adverse events ([1]; doses up to 1.2 mg/kg): no recorded adverse events | Well tolerated dose ([1]; escalating doses 0.6-2.4 mg/kg): up to 1.2 mg/kg | LD50 ([2]; in rats): up to 400 mg/kg | LD50 relative to therapeutically recommended dose ([2]; rats LD50 vs therapeutically recommended dose of 0.6-1.2 mg/kg): 300-400 fold

From patent US20090186854A1, “S-ALKYLISOTHIOURONIUM DERIVATIVES FOR THE TREATMENT OF INFLAMMATORY DISEASES” (Meditor Pharmaceuticals Ltd., priority 2006, published 2009)
